This note sets out measurements from publication PMC5698967, “A novel GH10 xylanase from Penicillium sp. accelerates saccharification of alkaline-pretreated bagasse by an enzyme from recombinant Trichoderma reesei expressing Aspergillus β-glucosidase” (Biotechnology for Biofuels, 2017).

Molecules are shown by their SMILES.

The assay has as its target T1, PspXyn10 (Penicillium sp., UniProt A0A2Z5XER4).
T1 construct: full-length cDNA (404 residues), predicted signal peptide 1-22 removed on secretion; GH10 (25-336) + CBM1 (372-404); untagged, expressed in Trichoderma reesei C1PX10, purified; 55 kDa on SDS-PAGE; internal peptides LYYNDYNLESAGAK, NHLTNVVTHYK, YAWDVVNEGLNDDGTYR
T1 sequence (A0A2Z5XER4 23-404): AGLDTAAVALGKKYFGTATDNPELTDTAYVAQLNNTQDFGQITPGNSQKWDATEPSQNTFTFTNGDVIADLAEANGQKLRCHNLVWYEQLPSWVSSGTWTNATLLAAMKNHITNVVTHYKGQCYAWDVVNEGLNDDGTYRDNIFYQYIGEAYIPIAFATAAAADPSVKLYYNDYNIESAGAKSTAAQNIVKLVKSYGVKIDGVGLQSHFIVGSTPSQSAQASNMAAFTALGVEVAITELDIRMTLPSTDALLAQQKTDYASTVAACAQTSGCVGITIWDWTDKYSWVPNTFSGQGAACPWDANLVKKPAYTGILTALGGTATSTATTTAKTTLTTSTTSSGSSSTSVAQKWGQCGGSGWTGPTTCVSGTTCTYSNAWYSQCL
Put plainly: p-nitrophenol release, absorbance at […] nm. Conditions: 1 mM substrate; 50 mM sodium acetate pH 5.0; 50 °C; 5 min. It is filed as biochemical.

`O=[N+]([O-])c1ccc(O[C@@H]2OC[C@@H](O[C@@H]3OC[C@@H](O)[C@H](O)[C@H]3O)[C@H](O)[C@H]2O)cc1` [pNPX2, p-nitrophenyl xylobioside]: the specific activity entry is “enzymatic activity of purified PspXyn10, JN11H, and JNK25H against p-nitrophenyl xylobioside (pNPX2) was assayed”.
